Assay results: paper PMC8177795 (Cancer Science, 2021)
“Also recorded” adds a separate entry of the source.

Assay: Safety and tolerability
Assay type: in vivo, Japanese patients
Conditions: for Overall safety and tolerability: adult Japanese patients with r/r B‐cell malignancies

## CC#CC(=O)N1CCC[C@H]1c1nc(-c2ccc(C(=O)Nc3ccccn3)cc2)c2c(N)nccn12 [acalabrutinib]
100 mg BID
  Overall safety and tolerability: safe and well‐tolerated
100 mg BID, listed as Acalabrutinib
  Overall safety and tolerability: generally safe and well‐tolerated
100 mg BID, part 1
  Dose‐limiting toxicities (DLTs): No DLTs were observed
Part 1 (N = 6)
  AE of clinical interest: Anemia: 2 (33.3) n (%)
  AE of clinical interest: Atrial fibrillation: 0 n (%)
  AE of clinical interest: Cardiac events: 0 n (%)
  AE of clinical interest: Hemorrhage: 0 n (%)
  AE of clinical interest: Hepatotoxicity: 0 n (%)
  AE of clinical interest: Infections: 6 (100.0) n (%)
  AE of clinical interest: Interstitial lung disease/pneumonitis: 1 (16.7) n (%)
  AE of clinical interest: Leukopenia: 1 (16.7) n (%)
  AE of clinical interest: Neutropenia: 1 (16.7) n (%)
  AE of clinical interest: Other hemorrhage: 0 n (%)
  AE of clinical interest: Other leukopenia: 0 n (%)
  AE of clinical interest: Second primary malignancies (excl. nonmelanoma skin cancer): 1 (16.7) n (%)
  AE of clinical interest: Second primary malignancy: 1 (16.7) n (%)
  AE of clinical interest: Thrombocytopenia: 1 (16.7) n (%)
  AE of clinical interest: Tumor lysis syndrome: 0 n (%)
  Patients with any AE of clinical interest: 6 (100.0) n (%)
  Patients with any SAE: 3 (50.0) n (%)
  SAE: Abdominal pain upper: 0 n (%)
  SAE: Anemia: 1 (16.7) n (%)
  SAE: Blood and lymphatic system disorders: 1 (16.7) n (%)
  SAE: Colon cancer: 1 (16.7) n (%)
  SAE: Gastrointestinal disorders: 0 n (%)
  SAE: Infections and infestations: 1 (16.7) n (%)
  SAE: Neoplasms benign, malignant, and unspecified (incl. cysts and polyps): 1 (16.7) n (%)
  SAE: Pneumonia: 1 (16.7) n (%)
Total (N = 25)
  AE of clinical interest: 95 Total number of AEs
  AE of clinical interest: Anemia: 6 (24.0) n (%)
  AE of clinical interest: Atrial fibrillation: 1 (4.0) n (%)
  AE of clinical interest: Cardiac events: 1 (4.0) n (%)
  AE of clinical interest: Hemorrhage: 8 (32.0) n (%)
  AE of clinical interest: Hepatotoxicity: 3 (12.0) n (%)
  AE of clinical interest: Infections: 16 (64.0) n (%)
  AE of clinical interest: Interstitial lung disease/pneumonitis: 1 (4.0) n (%)
  AE of clinical interest: Leukopenia: 7 (28.0) n (%)
  AE of clinical interest: Neutropenia: 6 (24.0) n (%)
  AE of clinical interest: Other hemorrhage: 8 (32.0) n (%)
  AE of clinical interest: Other leukopenia: 3 (12.0) n (%)
  AE of clinical interest: Second primary malignancies (excl. nonmelanoma skin cancer): 1 (4.0) n (%)
  AE of clinical interest: Second primary malignancy: 1 (4.0) n (%)
  AE of clinical interest: Thrombocytopenia: 5 (20.0) n (%)
  AE of clinical interest: Tumor lysis syndrome: 1 (4.0) n (%)
  Patients with any AE of clinical interest: 22 (88.0) n (%)
  Patients with any SAE: 6 (24.0) n (%)
  SAE: Abdominal pain upper: 1 (4.0) n (%)
  SAE: Anemia: 1 (4.0) n (%)
  SAE: Blood and lymphatic system disorders: 1 (4.0) n (%)
  SAE: Colon cancer: 1 (4.0) n (%)
  SAE: Gastrointestinal disorders: 1 (4.0) n (%)
  SAE: Infections and infestations: 3 (12.0 n (%)
  SAE: Neoplasms benign, malignant, and unspecified (incl. cysts and polyps): 1 (4.0) n (%)
  SAE: Pneumonia: 3 (12.0) n (%)
All 25 treated patients
  AEs of clinical interest, patients: 88%
  AEs resulting in treatment discontinuation or death: No AEs resulted in treatment discontinuation or death; also recorded: No AEs with the outcome of death or AEs/SAEs leading to treatment discontinuation were reported
  Grade 4 AEs, patients: 20%
  Headache (any AE), patients: 32%
  Rash (any AE), patients: 28%
  SAEs related to treatment, patients: 16%
  Serious adverse events (SAEs), patients: 24%
  Treatment‐related adverse events, patients: 88%
  Treatment‐related headache, patients: 28%
  Treatment‐related purpura, patients: 24%
r/r CLL/SLL cohort (N = 9)
  AE of clinical interest: Anemia: 2 (22.2) n (%)
  AE of clinical interest: Atrial fibrillation: 0 n (%)
  AE of clinical interest: Cardiac events: 0 n (%)
  AE of clinical interest: Hemorrhage: 4 (44.4) n (%)
  AE of clinical interest: Hepatotoxicity: 1 (11.1) n (%)
  AE of clinical interest: Infections: 6 (66.7) n (%)
  AE of clinical interest: Interstitial lung disease/pneumonitis: 0 n (%)
  AE of clinical interest: Leukopenia: 3 (33.3) n (%)
  AE of clinical interest: Neutropenia: 3 (33.3) n (%)
  AE of clinical interest: Other hemorrhage: 4 (44.4) n (%)
